Read-outs that look alike come from different tables or passages of the source.
Tests used:
[1] = mouse, plasma, 1 h; for % Remaining (1 h): 10 µM
[2] = female, SCID, mouse, in vivo

## CC(C)c1cc(-c2nnc(O)n2-c2ccc(CC3CCN(CC(=O)Nc4cccc5c4CN(C4CCC(=O)NC4=O)C5=O)CC3)cc2)c(O)cc1O (stereo not drawn) [SDC-TRAP-0116, 2-(4-(4-(3-(2,4-dihydroxy-5-isopropylphenyl)-5-hydroxy-4H-1,2,4-triazol-4-yl)benzyl)piperidin-1-yl)-N-(2-(2,6-dioxopiperidin-3-yl)-1-oxoisoindolin-4-yl) acetamide]
[1]
  % Remaining (1 h): 91.1%
[2]; 1 h
  Tumor Conc.: 13.7 nmol/g of tissue
[2]; 6 h
  Tumor Conc.: 6.09 nmol/g of tissue
[2]; 24 h
  Tumor Conc.: 2.78 nmol/g of tissue
[2]; 48 h
  Tumor Conc.: 1.46 nmol/g of tissue
[2]; […]
  Tumor Conc.: 17.7 nmol/g of tissue

## CC(C)c1cc(-c2nnc(O)n2-c2ccc(N3CCN(C(=O)c4ccc(COC(=O)Nc5cccc6c5CN(C5CCC(=O)NC5=O)C6=O)cc4)CC3)cc2)c(O)cc1O (stereo not drawn) [SDC-TRAP-0156, 4-(4-(4-(3-(2,4-Dihydroxy-5-isopropylphenyl)-5-hydroxy-4H-1,2,4-triazol-4-yl)phenyl)piperazine-1-carbonyl)benzyl (2-(2,6-dioxopiperidin-3-yl)-1-oxoisoindolin-4-yl)carbamate]
[1]
  % Remaining (1 h): 90.3%

## CCNC(=O)c1nnc(-c2cc(C(C)C)c(O)cc2O)n1-c1ccc(CN2CCC(C(=O)N(C)CCCOC(=O)Nc3cccc4c3CN(C3CCC(=O)NC3=O)C4=O)CC2)cc1 (stereo not drawn) [SDC-TRAP-0231, 3-(1-(4-(3-(2,4-dihydroxy-5-isopropylphenyl)-5-(ethylcarbamoyl)-4H-1,2,4-triazol-4-yl)benzyl)-N-methylpiperidine-4-carboxamido)propyl (2-(2,6-dioxopiperidin-3-yl)-1-oxoisoindolin-4-yl)carbamate]
[1]; 10 μM
  % Remaining (1 h, 10 μM): 98.3%

## CO[C@H]1/C=C\C=C(/C)C(=O)NC2=CC(=O)C(NCCCCCCNC(=O)c3ncn4c(=O)n(C)nnc34)=C(C[C@@H](C)C[C@H](OC)[C@@H](O)[C@@H](C)/C=C(\C)[C@@H]1OC(N)=O)C2=O [SDC-TRAP-0267, (4E,6Z,8S,9S,10E,12S,13S,14S,16R)-13-hydroxy-8,14-dimethoxy-4,10,12,16-tetramethyl-19-((6-(3-methyl-4-oxo-3,4-dihydroimidazo[5,1-d][1,2,3,5]tetrazine-8-carboxamidohexyl)amino)-3,20,22-trioxo-2-azabicyclo[16.3.1]docosa-1(21),4,6,10,18-pentaen-9-yl carbamate]
[1]
  % Remaining (1 h): 63.2%
